Experimental data reported in ChEMBL document CHEMBL5257048, “Embellicines C-E: Macrocyclic Alkaloids with a Cyclopenta[b]fluorene Ring System from the Fungus Sarocladium sp” (J Nat Prod, 2023).

What was measured:
Format in all cases: functional, cell-based
[1] = tested on: MDA-MB-231; experiment: Cytotoxicity against human MDA-MB-231 cells assessed as inhibition of cell growth incubated for 72 hrs by MTT assay; conditions: MDA-MB-231, 72 h
[2] = tested on: MDA-MB-435; experiment: Cytotoxicity against human MDA-MB-435 cells assessed as inhibition of cell growth incubated for 72 hrs by MTT assay; conditions: MDA-MB-435, 72 h
[3] = tested on: OVCAR-3; experiment: Cytotoxicity against human OVCAR-3 cells assessed as inhibition of cell growth incubated for 72 hrs by MTT assay; conditions: OVCAR-3, 72 h

| SMILES | IC50 [1] | IC50 [2] | IC50 [3] |
| --- | --- | --- | --- |
| CC1=C[C@]2(C)C(=C(C)[C@@H]3[C@@H]4C[C@H](C)C[C@H](C)[C@H]4[C@H]4Oc5ccc(cc5)C[C@]5(O)NC(=O)[C@]6(O[C@H]65)C(=O)[C@H]2[C@@H]43)[C@@H]1C | 4.8 µM | 17 µM | 21 µM |
| CC(=O)O[C@]12Cc3ccc(cc3)O[C@@H]3[C@H]4[C@@H](C[C@H](C)C[C@@H]4C)[C@H]4C(C)=C5[C@H](C)C(C)=C[C@@]5(C)[C@@H](C(=O)[C@@]5(O[C@H]51)C(=O)N2)[C@@H]34 | 4.4 µM | 20 µM | 20 µM |
| CC1=C[C@]2(C)C(=C(C)[C@@H]3[C@@H]4C[C@H](C)C[C@H](C)[C@H]4[C@H]4Oc5ccc(cc5)C[C@@]5(O)C=C(C(=O)N5)C(=O)[C@H]2[C@@H]43)[C@@H]1C | 0.4 µM | 1.5 µM | 1.6 µM |
| CC1=C[C@]2(C)C(=C(C)[C@@H]3[C@@H]4C[C@H](C)C[C@H](C)[C@H]4[C@H]4Oc5ccc(cc5)CC(=O)[C@@H]5O[C@@]5(C(N)=O)C(=O)[C@H]2[C@@H]43)[C@@H]1C | 3.2 µM | 18 µM | 24 µM |
| CO[C@@H]1/C2=C(\O)[C@H]3[C@H]4[C@H](Oc5ccc(cc5)C[C@]1(O)NC2=O)[C@H]1[C@@H](C[C@H](C)C[C@@H]1C)[C@H]4C(C)=C1[C@H](C)C(C)=C[C@]13C | 0.4 µM | 1.8 µM | 1 µM |
